Experimental data as given in US20160158330A1, “METHODS OF PREPARATION AND COMPOSITION OF PEPTIDE CONSTRUCTS USEFUL FOR TREATMENT OF RHEUMATOID ARTHRITIS” (CEL-SCI CORPORATION, priority 2013, published 2016).
Entries after “also recorded” stand apart in the source; their conditions may differ. Where no end group is shown, it is not given here. [ ]: non-standard residue; d: D form. Cit = NC(=O)NCCC[C@H](N)C(=O)O

Key:
[1] = system: splenic T cells from BALB/c mice with PGIA; assay: Splenic T cell proliferation, [3H]thymidine incorporation (stimulation index); type: cell-based; settings: 5 μM peptide, splenocytes of PGIA BALB/c mice, p<0.05
Protocol: (§1) FIG. 3 illustrates T cell proliferation and T cell polarization (TH1:TH2) induced by P70, DerG-PG70 and J-PG70 peptides (Panel A). […] Panel B) T cell polarization by Th1:Th2 cytokine (IFNγ:IL-4) ratios. […] It is noted that these two responses are mutually exclusive. Amounts of IFNγ and IL-4 in culture fluid samples were determined by ELISA (enzyme-linked immunosorbent assay, a common test that uses antibodies and color change to measure protein amounts). The “baseline” value for this ratio, i.e., the value of this ratio in untreated (unpolarized) T cells, is around 3.2 (the black bar, “None,” in FIG. 3B). An increased ratio indicates relatively more IFNγ and/or less IL-4, which in turn indicates a shift towards a Th1 response and away from a Th2 response. A decreased value (below 3.2) indicates relatively more IL-4 and/or less IFNγ and thus a shift towards a Th2 response and away from a Th1 response. Cells were isolated from spleens by gently pushing the organ through a wire cell sieve mesh screen with a sterile 5 cc syringe plunger. The spleens were from BALB/c retired female breeder mice with PGIA (n=3), cultured individually for 5 days in the absence (None) or presence of the different designated peptides (5 μM each) on PG protein (10 m). As has been previously shown, the only cell type incorporating tritiated [^3H]thymidine into DNA are T cells. Therefore, proliferation of splenic T cells was measured in 96 well plates by use of [^3H]thymidine ([…]; specific activity: 2 Ci/mmol, Amersham, Arlington Heights, Ill.) incorporation from day 4 to 5 and expressed as a stimulation index based on the counts per minute normalized to the untreated control (panel A). Treatments were done in triplicate wells for the proliferation assay, and identical triplicate wells were used to harvest culture fluid at 48 hours for cytokine assays. The amounts of IFNγ (a Th1 cytokine) and IL-4 (a Th2 cytokine) in the media of the same cultures were determined by ELISA and expressed as ratios.
(§2) The effect of L.E.A.P.S. conjugates on T cell responses is shown in this example. J-PG70 conjugates modulated the proliferation of T cells isolated from spleen or lymph-node cells from wild type BALB/c mice with PGIA or naïve, PG-TCR-transgenic BALB/c mice.

IFNγ:IL-4 = assay: T cell polarization by Th1:Th2 cytokine (IFNγ:IL-4) ratio, ELISA; type: cell-based; settings: 5 μM peptide, splenocytes of PGIA BALB/c mice; baseline ratio around 3.2
Protocol: as §1, §2

IL-12p40 = assay: Intracellular expression of IL-12p40 by DCs (flow cytometry); type: cell-based, BALB/c mice
Protocol: FIG. 2 illustrates the effects of L.E.A.P.S.-PG conjugates on intracellular expression of IL-12p40 by DCs. DCs from BALB/c female retired breeder normal mice (n=3), having no PGIA disease (generated from bone marrow as described under FIG. 1) were incubated for 24 hours with the indicated peptides (5 μM each) at a cell density of 1×10^6 DCs/mL. DCs not receiving treatment (None) or treated with LPS (1 μg/ml) served as negative and positive controls, respectively. At the end of treatment, DCs were harvested and incubated with 1 μg/mL monensin (GolgiStop, BD Biosciences) for 4 hours to prevent cytokine secretion. Surface staining of DCs was done with fluoresecein isothiocyanate-(FITC) conjugated anti-CD11c antibody. The cells were then fixed and permeabilized using BD Biosciences' Cytofix/Cytoperm Kit. Intracellular IL-12 was detected with a phycoerythrin-(PE) labeled antibody to mouse IL-12p40 (eBioscience). Flow cytometry was carried out as described above. The number of IL-12p40+DCs was determined by gating on CD11c+ cells, and the results expressed as the % of IL-12p40+ of all CD11c+DCs. […] The error bars represent ±SEM.

Bone marrow-derived DCs = assay: DC maturation in vitro: MHC class II and CD86 expression by flow cytometry; type: cell-based; settings: 5 μM peptide, 24 hours, bone marrow-derived DCs of naïve BALB/c mice
Protocol: FIG. 1 illustrates the effects of PG and L.E.A.P.S.-PG conjugates on DC maturation as indicated by MHC class II and CD86 expression (left and right panels respectively) following treatment (24 hours). […] MFI: mean fluorescence intensity (arbitrary units). […]
To generate DCs, the bone marrow cells were cultured for 9 days in the presence of recombinant mouse granulocyte-macrophage colony stimulating factor (GM-CSF, Sigma-Aldrich, St Louis, Mo.) at a dose of 200 U/ml (Egelston C., Kurko J., Besenyei T. et al. (2012) Suppression of dendritic cell maturation and T cell proliferation by synovial fluid myeloid cells from mice with autoimmune arthritis. Arthritis Rheum 64: 3179-3188). […] After the 24-hour culture with the indicated stimulants, the cells were washed with PBS containing 0.5% bovine serum albumin and 0.01% sodium azide (fluorescence activated cell sorter (FACS) buffer). […]

[2] = system: ankle (tibio-talar) joints; assay: Histology of ankle (tibio-talar) joints of vaccinated PGIA mice; type: in vivo; settings: PGIA mice 36 days after treatment, conjugate in adjuvant
Source text: Histology of ankle (tibio-talar) joints are shown in (A) normal mice and in (B-D) PGIA mice 36 days after undergoing treatment with L.E.A.P.S. conjugates. The normal joint is characterized by smooth cartilage surfaces on the tibia (Ti) and talus (Ta), inflammatory cell-free joint cavity (JC) and synovial tissue (ST). The ST is lined by a thin layer of cells and contains mainly fat tissue. Ankle joints from mice with PGIA shown in (B), treated with PBS in adjuvant, show evidence of synovial thickening (hyperplasia), inflammatory cell accumulation in the JC and ST, as well as partial erosion of cartilage surface (arrows).
(§3) The joint sections were stained with hematoxylin and eosin. One representative section per group is shown. […] Protection was associated with reduced PG-specific T cell proliferation.

[3] = system: proteoglycan-induced arthritis (PGIA); assay: L.E.A.P.S. peptide vaccination of PGIA mice, AI scores; type: in vivo; settings: n=8 mice/group
Source text: In this example, in vivo experiments of efficacy and protection are shown in FIG. 4, which indicates groups from a first study of efficacy of vaccine candidates, and related controls.

spleen cells = assay: PG-specific spleen cell proliferation of vaccinated PGIA mice (in vitro assay); type: in vivo; settings: cells from vaccinated PGIA mice, in vitro stimulation
Source text: as §3

[4] = system: Th1, Th2, Th17, and regulatory T cells (Tregs); assay: Proportions of Th1, Th2, Th17 and Tregs in spleen cell cultures from vaccinated mice (flow cytometry); type: in vivo; settings: spleen cell cultures from vaccinated PGIA mice, n=4 mice/group
Protocol: The proportions of Th1, Th2, Th17, and regulatory T cells (Tregs) in spleen cell cultures from the vaccinated mice were determined by flow cytometry. Protection was associated with decreased proportions of Th1 and Th17 cells, and increases in Th2 cells and Tregs (p<0.05-0.001, Fisher's LSD test; n=4 mice/group). […] This is similar to the pattern of cytokines secreted by the cells.
In this example, the effects of L.E.A.P.S.-PG peptide conjugate vaccination on the proportions of splenic Th1, Th2, Th17, and regulatory T cells (Tregs) are shown in FIG. 8. The proportions of Th1, Th2, Th17, and regulatory T cells (Tregs) in spleen cell cultures from the vaccinated mice were determined by flow cytometry. Protection was associated with decreased proportions of Th1 and Th17 cells, and increases in Th2 cells and Tregs (p<0.05-0.001, Fisher's LSD test; n=4 mice/group).

“DLLKNGERIEKVEGGGATEG(Cit)VRVNSAYQDK (DLLKNGERIEKVEGGGATEG[Cit]VRVNSAYQDK) [J-PG70Cit]” was tested, and the “T cell proliferation rate (stimulation index) versus untreated” value [1] was “significantly increased”, the “T cell polarization, Th1:Th2 cytokine (IFNγ:IL-4) ratio versus untreated” value (IFNγ:IL-4) was “significant shift towards Th1; also recorded: significantly skewed towards a Th1 response” and the “% of IL-12p40+ of all CD11c+ DCs” value (IL-12p40; peptide 5 μM, 24 hours, untreated group 3.8%) was 7.3%.

For “DLLKNGERIEKVEGGGATEGRVRVNSAYQDK (Heteroconjugate Construct) [J-PG70, L.E.A.P.S. heteroconjugate of ICBL Peptide J linked to PG70 through a triglycine linker]”, the “T cell proliferation rate (stimulation index) versus untreated” value [1] was “higher T cell proliferation as compared to PG70; also recorded: significantly increased”, the “T cell polarization, Th1:Th2 cytokine (IFNγ:IL-4) ratio versus untreated” value (IFNγ:IL-4) was “significantly skewed towards a Th1 response” and the “DC maturation (MHC class II and CD86 surface marker expression)” value (Bone marrow-derived DCs) was “led to matured dendritic cells”. The “IL-12 intracellular expression in matured DCs” value (IL-12p40; 24 hours of incubation) was “modulated the IL-12 intracellular expression”.

“DGQEEKAGVVSTGLIGGGATEGRVRVNSAYQDK (Heteroconjugate Construct) [DerG-PG70]” was tested, and the “T cell proliferation rate (stimulation index) versus untreated” value [1] was “no significant difference”, the “Histology of ankle joints (synovial hyperplasia, cell infiltration, cartilage erosion)” value [2] was “only mild ST hyperplasia as shown in (D), but no cell infiltration or cartilage damage” and the “Day from which difference from the other groups became statistically significant” value ([3]; p<0.05 repeated measures ANOVA) was about 12 days. For the same substance, the “Disease severity (AI scores)” value ([3]; vaccine in adjuvant) was “dramatically suppressed; also recorded: therapeutically effective”, the “T cell polarization, Th1:Th2 cytokine (IFNγ:IL-4) ratio versus untreated” value (IFNγ:IL-4) was “significant shift towards Th2; also recorded: significantly skewed towards a Th2 response” and the “PG-specific spleen cell proliferation” value (spleen cells) was “much less responsive”. The “Immune deviation (proportions of Th1, Th2, Th17, Tregs)” value [4] was “inducing immune deviation in favor of Th2 and Treg cells”.

With “ATEGRVRVNSAYQDK (listed as Homo Sapiens) [PG70, proteoglycan aggrecan (G1) residues 70-84, reference compound]” the “T cell proliferation rate (stimulation index) versus untreated” value [1] was “significantly increased” and the “T cell polarization, Th1:Th2 cytokine (IFNγ:IL-4) ratio versus untreated” value (IFNγ:IL-4) was “significantly skewed towards a Th1 response”.
